Measurements as given in US5674979A, “Agent for inhibiting symmetrical proteins, in particular enzymes” (priority 1989, dated 1997).
Read-outs that look alike come from different tables or passages of the source. Residues, ends and D or L forms follow the SMILES beside them. *: point of attachment. ClAc = O=C(CCl)*

What was measured:
HIV-1 [1] = settings: H9 cells
Description: Compounds (a), (b), (c), (d) were tested in the molarity range from 0.1 μM to 1000 μM. Infectivity tests were carried out as follows: an HIV-1 suspension containing 10^2 infectious units was absorbed on to 5×10^6 H9 cells in a volume of 1 ml for 2 hours at 4° C. After this time, 9 ml of tissue culture medium with the required inhibitor concentration was added. The medium was exchanged with fresh medium plus inhibitor daily. Two control cultures were also prepared, one without inhibitor to determine the normal virus replication rate, the other containing inhibitor but no virus, to determine whether the substances were cytotoxic for H9 cells. […] The amount of virus antigen produced by the infected cells was measured daily using Elisa for eight days, indicating the amount of HIV-1 antigen in the tissue culture medium. After this, the cells were pelleted, washed in medium without inhibitor, and further incubated in inhibitor-less medium. The antigen production was measured on days 9 and 12 (ie 1 and […] after removal of the inhibitor). Virus production was also measured on days 7, 8, 9, and 12 by determining the amount of reverse transcriptase in the supernatant of the cell medium.

HIV-1 [2] = tested on: HIV-1
H9 cells = test: Cytotoxicity for H9 cells, trypan blue colouration; assay type: cell-based; settings: culture with inhibitor but no virus, 0.1 μM to 1000 μM
[3] = 0,1 μM, day 9 post infection, no inhibitor (after removal)
[4] = 0,1 μM, day 12 post infection, no inhibitor (after removal)
[5] = 1 μM, day 9 post infection, no inhibitor (after removal)
[6] = 1 μM, day 12 post infection, no inhibitor (after removal)
[7] = 10 μM, day 9 post infection, no inhibitor (after removal)
[8] = 10 μM, day 12 post infection, no inhibitor (after removal)
[9] = 100 μM, day 9 post infection, no inhibitor (after removal)
[10] = 100 μM, day 12 post infection, no inhibitor (after removal)
[11] = 1000 μM, day 9 post infection, no inhibitor (after removal)
[12] = 1000 μM, day 12 post infection, no inhibitor (after removal)

For `CC[C@H](C)[C@H](NC(=O)[C@@H]1CCCN1C(=O)[C@H](Cc1ccccc1)NC(=O)[C@H](C)NC(=O)CNC(=O)CCl)C(=O)N[C@@H](C)C(=O)O` [C, Cl--CH2 --CO-Gly-Ala-Phe-Pro-Ile-Ala-OH] (ClAc-GAFPIA-OH), the “HIV-1 antigen production as measured in antigen capture ELISA” value (“HIV-1 antigen production as measured” for short) (HIV-1 [1]; 0,1 μM, day 1 post infection) was 0,062 o. D, the “HIV-1 antigen production as measured” value (HIV-1 [1]; 0,1 μM, day 2 post infection) was 0,069 o. D and the “HIV-1 antigen production as measured” value (HIV-1 [1]; 0,1 μM, day 3 post infection) was 0,055 o. D. The “HIV-1 antigen production as measured” value (HIV-1 [1]; 0,1 μM, day 4 post infection) was 0,052 o. D, the “HIV-1 antigen production as measured” value (HIV-1 [1]; 0,1 μM, day 5 post infection) was 0,054 o. D and the “HIV-1 antigen production as measured” value (HIV-1 [1]; 0,1 μM, day 6 post infection) was 0,105 o. D. For the same compound, the “HIV-1 antigen production as measured” value (HIV-1 [1]; 0,1 μM, day 7 post infection) was 0,276 o. D, the “HIV-1 antigen production as measured” value (HIV-1 [1]; 0,1 μM, day 8 post infection) was 0,336 o. D and the “HIV-1 antigen production as measured” value (HIV-1 [1]; [3]) was 0,588 o. D. For the same compound, the “HIV-1 antigen production as measured” value (HIV-1 [1]; [4]) was 1,010 o. D, the “HIV-1 antigen production as measured” value (HIV-1 [1]; 1 μM, day 1 post infection) was 0,061 o. D and the “HIV-1 antigen production as measured” value (HIV-1 [1]; 1 μM, day 2 post infection) was 0,054 o. D. The “HIV-1 antigen production as measured” value (HIV-1 [1]; 1 μM, day 3 post infection) was 0,060 o. D, the “HIV-1 antigen production as measured” value (HIV-1 [1]; 1 μM, day 4 post infection) was 0,050 o. D and the “HIV-1 antigen production as measured” value (HIV-1 [1]; 1 μM, day 5 post infection) was 0,051 o. D. For the same compound, the “HIV-1 antigen production as measured” value (HIV-1 [1]; 1 μM, day 6 post infection) was 0,133 o. D, the “HIV-1 antigen production as measured” value (HIV-1 [1]; 1 μM, day 7 post infection) was 0,267 o. D and the “HIV-1 antigen production as measured” value (HIV-1 [1]; 1 μM, day 8 post infection) was 0,239 o. D. The “HIV-1 antigen production as measured” value (HIV-1 [1]; [5]) was 0,808 o. D, the “HIV-1 antigen production as measured” value (HIV-1 [1]; [6]) was 1,042 o. D and the “HIV-1 antigen production as measured” value (HIV-1 [1]; 10 μM, day 1 post infection) was 0,069 o. D. The “HIV-1 antigen production as measured” value (HIV-1 [1]; 10 μM, day 2 post infection) was 0,048 o. D, the “HIV-1 antigen production as measured” value (HIV-1 [1]; 10 μM, day 3 post infection) was 0,066 o. D and the “HIV-1 antigen production as measured” value (HIV-1 [1]; 10 μM, day 4 post infection) was 0,064 o. D. For the same compound, the “HIV-1 antigen production as measured” value (HIV-1 [1]; 10 μM, day 5 post infection) was 0,049 o. D, the “HIV-1 antigen production as measured” value (HIV-1 [1]; 10 μM, day 6 post infection) was 0,099 o. D and the “HIV-1 antigen production as measured” value (HIV-1 [1]; 10 μM, day 7 post infection) was 0,228 o. D. For the same compound, the “HIV-1 antigen production as measured” value (HIV-1 [1]; 10 μM, day 8 post infection) was 0,292 o. D, the “HIV-1 antigen production as measured” value (HIV-1 [1]; [7]) was 0,643 o. D and the “HIV-1 antigen production as measured” value (HIV-1 [1]; [8]) was 1,040 o. D. The “HIV-1 antigen production as measured” value (HIV-1 [1]; 100 μM, day 1 post infection) was 0,064 o. D, the “HIV-1 antigen production as measured” value (HIV-1 [1]; 100 μM, day 2 post infection) was 0,056 o. D and the “HIV-1 antigen production as measured” value (HIV-1 [1]; 100 μM, day 3 post infection) was 0,062 o. D. The “HIV-1 antigen production as measured” value (HIV-1 [1]; 100 μM, day 4 post infection) was 0,053 o. D, the “HIV-1 antigen production as measured” value (HIV-1 [1]; 100 μM, day 5 post infection) was 0,061 o. D and the “HIV-1 antigen production as measured” value (HIV-1 [1]; 100 μM, day 6 post infection) was 0,100 o. D. The “HIV-1 antigen production as measured” value (HIV-1 [1]; 100 μM, day 7 post infection) was 0,265 o. D, the “HIV-1 antigen production as measured” value (HIV-1 [1]; 100 μM, day 8 post infection) was 0,296 o. D and the “HIV-1 antigen production as measured” value (HIV-1 [1]; [9]) was 0,787 o. D. For the same compound, the “HIV-1 antigen production as measured” value (HIV-1 [1]; [10]) was 0,940 o. D, the “HIV-1 antigen production as measured” value (HIV-1 [1]; 1000 μM, day 1 post infection) was 0,071 o. D and the “HIV-1 antigen production as measured” value (HIV-1 [1]; 1000 μM, day 2 post infection) was 0,053 o. D. For the same compound, the “HIV-1 antigen production as measured” value (HIV-1 [1]; 1000 μM, day 3 post infection) was 0,061 o. D, the “HIV-1 antigen production as measured” value (HIV-1 [1]; 1000 μM, day 4 post infection) was 0,057 o. D and the “HIV-1 antigen production as measured” value (HIV-1 [1]; 1000 μM, day 5 post infection) was 0,123 o. D. The “HIV-1 antigen production as measured” value (HIV-1 [1]; 1000 μM, day 6 post infection) was 0,096 o. D, the “HIV-1 antigen production as measured” value (HIV-1 [1]; 1000 μM, day 7 post infection) was 0,415 o. D and the “HIV-1 antigen production as measured” value (HIV-1 [1]; 1000 μM, day 8 post infection) was 0,778 o. D. For the same compound, the “HIV-1 antigen production as measured” value (HIV-1 [1]; [11]) was 1,019 o. D, the “HIV-1 antigen production as measured” value (HIV-1 [1]; [12]) was 1,000 o. D and the “Reverse Transkriptase Determination” value (HIV-1 [2]; 0,1 μM, day 7 post infection) was 5561 epm/ml. For the same compound, the “Reverse Transkriptase Determination” value (HIV-1 [2]; 0,1 μM, day 8 post infection) was 2314 epm/ml, the “Reverse Transkriptase Determination” value (HIV-1 [2]; [3]) was 7477 epm/ml and the “Reverse Transkriptase Determination” value (HIV-1 [2]; [4]) was 113340 epm/ml. The “Reverse Transkriptase Determination” value (HIV-1 [2]; 1 μM, day 7 post infection) was 4575 epm/ml, the “Reverse Transkriptase Determination” value (HIV-1 [2]; 1 μM, day 8 post infection) was 3198 epm/ml and the “Reverse Transkriptase Determination” value (HIV-1 [2]; [5]) was 4186 epm/ml. The “Reverse Transkriptase Determination” value (HIV-1 [2]; [6]) was 164240 epm/ml, the “Reverse Transkriptase Determination” value (HIV-1 [2]; 10 μM, day 7 post infection) was 5358 epm/ml and the “Reverse Transkriptase Determination” value (HIV-1 [2]; 10 μM, day 8 post infection) was 4398 epm/ml. For the same compound, the “Reverse Transkriptase Determination” value (HIV-1 [2]; [7]) was 8823 epm/ml, the “Reverse Transkriptase Determination” value (HIV-1 [2]; [8]) was 158800 epm/ml and the “Reverse Transkriptase Determination” value (HIV-1 [2]; 100 μM, day 7 post infection) was 3838 epm/ml. For the same compound, the “Reverse Transkriptase Determination” value (HIV-1 [2]; 100 μM, day 8 post infection) was 6370 epm/ml, the “Reverse Transkriptase Determination” value (HIV-1 [2]; [9]) was 8860 epm/ml and the “Reverse Transkriptase Determination” value (HIV-1 [2]; [10]) was 96780 epm/ml. The “Reverse Transkriptase Determination” value (HIV-1 [2]; 1000 μM, day 7 post infection) was 7646 epm/ml, the “Reverse Transkriptase Determination” value (HIV-1 [2]; 1000 μM, day 8 post infection) was 4308 epm/ml and the “Reverse Transkriptase Determination” value (HIV-1 [2]; [11]) was 5343 epm/ml. For the same compound, the “Reverse Transkriptase Determination” value (HIV-1 [2]; [12]) was 107640 epm/ml and the “cytotoxic effect for H9 cells, colouration with trypan blue” value (H9 cells) was “no cytotoxic effect”.
